Source: patent publication US20240400555A1 (Initial Therapeutics, Inc., priority 2023, published 2024)
Read-outs that look alike come from different tables or passages of the source.

Test system: MV-4-11 cells
Assay: Cell Viability Assay in MV-4-11 Cells
Type: cell-based
Conditions: MV-4-11 cells, 72 h, Cell-Titer Glo, read-out: IC50
Method in brief: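 Luminescent ATP read-out (CellTiter-Glo) after 72 h compound treatment of MV-4-11 leukaemia cells (7,000 per well, IMDM plus 10% FBS). Values expressed relative to DMSO control and derived by four-parameter non-linear regression.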

Structure (SMILES) | IC50 (Homo sapiens, MV4-11, 72 h) [nM] | IC50 [nM]
CNC(=O)C#Cc1cc2c(N(C(=O)c3ccc(-n4nnc5cccnc54)cc3F)[C@@H]3CCCNC3)nccc2s1 [Example 549, 2-fluoro-N-[2-[3-(methylamino)-3-oxo-prop-1-ynyl]thieno[3,2-c]pyridin-4-yl]-N-[(3R)-3-piperidyl]-4-(triazolo [4,5-b]pyridin-3-yl)benzamide] | 1500 | 
CNC(=O)C#Cc1cc2c(N(C(=O)c3ccc(-c4cn(C)nn4)cc3F)[C@@H]3CCCNC3)nccc2s1 [Example 550, 2-fluoro-N-[2-[3-(methylamino)-3-oxo-prop-1-ynyl]thieno[3,2-c]pyridin-4-yl]-4-(1-methyltriazol-4-yl)-N-[(3R)-3-piperidyl] benzamide] | > 6000 | 
Cn1cc(-c2ccc(C(=O)N(c3nccc4sc(C#CC(C)(C)O)cc34)[C@@H]3CCCNC3)c(F)c2)nn1 [Example 551, 2-fluoro-N-[2-(3-hydroxy-3-methyl-but-1-ynyl)thieno[3,2-c]pyridin-4-yl]-4-(1-methyltriazol-4-yl)-N-[(3R)-3-piperidyl]benzamide] | 520 | 
Cn1cc(-c2ccc(C(=O)N(c3nccc4sc(C(N)=O)cc34)[C@@H]3CCCNC3)c(F)c2)nn1 [Example 552, 4-[[2-fluoro-4-(1-methyltriazol-4-yl)benzoyl]-[(3R)-3-piperidyl]amino] thieno [3,2-c] pyridine-2-carboxamide] | 910 | 
Nc1ccc(-c2cc3c(N(C(=O)c4ccc(-n5nnc6cccnc65)cc4F)[C@@H]4CCCNC4)nccc3s2)cn1 [Example 553, N-[2-(6-amino-3-pyridyl)thieno[3,2-c]pyridin-4-yl]-2-fluoro-N-[(3R)-3-piperidyl]-4-(triazolo[4,5-b]pyridin-3-yl)benzamide] | 78 | 
O=C(c1ccc(-n2nnc3cccnc32)cc1F)N(c1nccc2cc(-c3ccccn3)ccc12)[C@@H]1CCCNC1 [Example 556, (R)-4-(3H-[1,2,3]triazolo[4,5-b]pyridin-3-yl)-2-fluoro-N-(piperidin-3-yl)-N-(6-(pyridin-2-yl)isoquinolin-1-yl) benzamide] | 650 | 
O=C(c1ccc(-n2nnc3cccnc32)cc1F)N(c1nccc2sc(-c3ccc4[nH]ncc4c3)cc12)[C@@H]1CCCNC1 [Example 557, 2-fluoro-N-[2-(1H-indazol-5-yl)thieno[3,2-c]pyridin-4-yl]-N-[(3R)-3-piperidyl]-4-(triazolo[4,5-b]pyridin-3-yl)benzamide] | 130 | 
Cc1cccc2ccnc(N(C(=O)c3ccc(Nc4nccc(-c5ccncc5)n4)cc3F)[C@@H]3CCCNC3)c12 [Example 558, (R)-2-fluoro-N-(8-methylisoquinolin-1-yl)-N-(piperidin-3-yl)-4-((4-(pyridin-4-yl)pyrimidin-2-yl)amino)benzamide] | 11 | 
Cc1cccc2ccnc(N(C(=O)c3ccc(Nc4nccc(-c5ccccc5)n4)cc3F)[C@@H]3CCCNC3)c12 [Example 559, (R)-2-fluoro-N-(8-methylisoquinolin-1-yl)-4-((4-phenylpyrimidin-2-yl)amino)-N-(piperidin-3-yl)benzamide] | 34 | 
O=C(c1ccc(Nc2nccc(N3CCOCC3)n2)cc1F)N(c1nccc2cc(F)ccc12)[C@@H]1CCCNC1 [Example 560, (R)-2-fluoro-N-(6-fluoroisoquinolin-1-yl)-4-((4-morpholinopyrimidin-2-yl)amino)-N-(piperidin-3-yl)benzamide] | 220 | 
O=C(c1ccc(Nc2nccc(N3CCCCC3)n2)cc1F)N(c1nccc2cc(F)ccc12)[C@@H]1CCCNC1 [Example 561, (R)-2-fluoro-N-(6-fluoroisoquinolin-1-yl)-4-((4-(piperidin-1-yl)pyrimidin-2-yl)amino)-N-(piperidin-3-yl)benzamide] | 1200 | 
CN1CCN(c2ccnc(Nc3ccc(C(=O)N(c4nccc5cc(F)ccc45)[C@@H]4CCCNC4)c(F)c3)n2)CC1 [Example 562, (R)-2-fluoro-N-(6-fluoroisoquinolin-1-yl)-4-((4-(4-methylpiperazin-1-yl)pyrimidin-2-yl)amino)-N-(piperidin-3-yl)benzamide] | 340 | 
Cn1cc(-c2ccc(C(=O)N(c3nccc4sc(C(=O)c5cccnc5)cc34)[C@@H]3CCCNC3)c(F)c2)nn1 [Example 563] | 340 | 
Cc1cc(F)cc2ccnc(N(C(=O)c3ccc(Nc4ncccn4)cc3F)[C@@H]3CCCNC3)c12 [Example 564, (R)-2-fluoro-N-(6-fluoro-8-methylisoquinolin-1-yl)-N-(piperidin-3-yl)-4-(pyrimidin-2-ylamino)benzamide] | 14 | 
Nc1c(F)cc(-c2cc3c(N(C(=O)c4ccc(-n5nnc6cccnc65)cc4F)[C@@H]4CCCNC4)nccc3s2)cc1F [Example 565, N-[2-(4-amino-3,5-difluoro-phenyl)thieno[3,2-c]pyridin-4-yl]-2-fluoro-N-[(3R)-3-piperidyl]-4-(triazolo[4,5-b]pyridin-3-yl)benzamide] | 230 | 
O=C(c1ccc(-n2nnc3cccnc32)cc1F)N(c1nccc2sc(-c3ccnc(F)c3)cc12)[C@@H]1CCCNC1 [Example 566, 2-fluoro-N-[2-(2-fluoro-4-pyridyl)thieno [3,2-c]pyridin-4-yl]-N-[(3R)-3-piperidyl]-4-(triazolo [4,5-b]pyridin-3-yl) benzamide] | 240 | 
NC(=O)c1ccc(-c2cc3c(N(C(=O)c4ccc(-n5nnc6cccnc65)cc4F)[C@@H]4CCCNC4)nccc3s2)cc1F [Example 567, 2-fluoro-4-[4-[[2-fluoro-4-(triazolo[4,5-b]pyridin-3-yl)benzoyl]-[(3R)-3-piperidyl]amino]thieno[3,2-c]pyridin-2-yl]benzamide] | 230 | 
NC(=O)c1cc(-c2cc3c(N(C(=O)c4ccc(-n5nnc6cccnc65)cc4F)[C@@H]4CCCNC4)nccc3s2)cs1 [Example 568, 4-[4-[[2-fluoro-4-(triazolo[4,5-b]pyridin-3-yl)benzoyl]-[(3R)-3-piperidyl]amino]thieno[3,2-c]pyridin-2-yl]thiophene-2-carboxamide] | 89 | 
O=C(c1ccc(-n2nnc3cccnc32)cc1F)N(c1nccc2sc(-c3ccc(B(O)O)cc3)cc12)[C@@H]1CCCNC1 [Example 569, [4-[4-[[2-fluoro-4-(triazolo[4,5-b]pyridin-3-yl)benzoyl]-[(3R)-3-piperidyl]amino]thieno[3,2-c]pyridin-2-yl]phenyl]boronic acid] | 570 | 
NC(=O)Cc1ccc(-c2cc3c(N(C(=O)c4ccc(-n5nnc6cccnc65)cc4F)[C@@H]4CCCNC4)nccc3s2)cc1 [Example 570, N-[2-[4-(2-amino-2-oxo-ethyl)phenyl]thieno[3,2-c]pyridin-4-yl]-2-fluoro-N-[(3R)-3-piperidyl]-4-(triazolo[4,5-b]pyridin-3-yl)benzamide] | 110 | 
Cc1cc(-c2cc3c(N(C(=O)c4ccc(-n5nnc6cccnc65)cc4F)[C@@H]4CCCNC4)nccc3s2)cc(C)n1 [Example 571, N-[2-(2,6-dimethyl-4-pyridyl)thieno[3,2-c]pyridin-4-yl]-2-fluoro-N-[(3R)-3-piperidyl]-4-(triazolo[4,5-b]pyridin-3-yl)benzamide] | 63 | 
Cc1cc(-c2cc3c(N(C(=O)c4ccc(-n5nnc6cccnc65)cc4F)[C@@H]4CCCNC4)nccc3s2)ccc1C(N)=O [Example 572, 4-[4-[[2-fluoro-4-(triazolo [4,5-b]pyridin-3-yl)benzoyl]-[(3R)-3-piperidyl]amino]thieno [3,2-c]pyridin-2-yl]-2-methyl-benzamide] | 89 | 
NC(=O)c1ccc(-c2cc3c(N(C(=O)c4ccc(-n5nnc6cccnc65)cc4F)[C@@H]4CCCNC4)nccc3s2)cc1C(F)(F)F [Example 573, 4-[4-[[2-fluoro-4-(triazolo [4,5-b]pyridin-3-yl)benzoyl]-[(3R)-3-piperidyl]amino]thieno [3,2-c]pyridin-2-yl]-2-(trifluoromethyl) benzamide] | 230 | 
Cc1cnc(-c2ccc3c(N(C(=O)c4ccc(-n5nnc6cccnc65)cc4F)[C@@H]4CCCNC4)nccc3c2)s1 [Example 574, (R)-4-(3H-[1,2,3]triazolo[4,5-b]pyridin-3-yl)-2-fluoro-N-(6-(5-methylthiazol-2-yl)isoquinolin-1-yl)-N-(piperidin-3-yl)benzamide] | 390 | 
Cc1nc(-c2ccc3c(N(C(=O)c4ccc(-n5nnc6cccnc65)cc4F)[C@@H]4CCCNC4)nccc3c2)cs1 [Example 575, (R)-4-(3H-[1,2,3]triazolo[4,5-b]pyridin-3-yl)-2-fluoro-N-(6-(2-methylthiazol-4-yl)isoquinolin-1-yl)-N-(piperidin-3-yl)benzamide] | 150 | 
Cc1nnc(-c2ccc3c(N(C(=O)c4ccc(-n5nnc6cccnc65)cc4F)[C@@H]4CCCNC4)nccc3c2)s1 [Example 576, (R)-4-(3H-[1,2,3]triazolo[4,5-b]pyridin-3-yl)-2-fluoro-N-(6-(5-methyl-1,3,4-thiadiazol-2-yl)isoquinolin-1-yl)-N-(piperidin-3-yl)benzamide] | 430 | 
Cn1cc(-c2ccc(C(=O)N(c3nccc4cc(-c5ccccc5)ccc34)[C@@H]3CCCNC3)c(F)c2)nn1 [Example 577, (R)-2-fluoro-4-(1-methyl-1H-1,2,3-triazol-4-yl)-N-(6-phenylisoquinolin-1-yl)-N-(piperidin-3-yl)benzamide] |  | 76
Cc1cccc2ccnc(N(C(=O)c3ccc(Nc4nccc(N5CCCCC5)n4)cc3F)[C@@H]3CCCNC3)c12 [Example 578, (R)-2-fluoro-N-(8-methylisoquinolin-1-yl)-4-((4-(piperidin-1-yl)pyrimidin-2-yl)amino)-N-(piperidin-3-yl)benzamide] | 45 | 
Cn1cc(-c2ccc(C(=O)N(c3nccc4cc(-c5ccccc5)ccc34)[C@@H]3CCCNC3)c(F)c2)nn1 [Example 579, (R)-2-fluoro-4-(1-methyl-1H-1,2,3-triazol-4-yl)-N-(6-phenylisoquinolin-1-yl)-N-(piperidin-3-yl)benzamide] |  | 220
Cn1cc(-c2ccc(C(=O)N(c3nccc4cc(-c5ccc(F)cc5)ccc34)[C@@H]3CCCNC3)c(F)c2)nn1 [Example 580, (R)-2-fluoro-N-(6-(4-fluorophenyl)isoquinolin-1-yl)-4-(1-methyl-1H-1,2,3-triazol-4-yl)-N-(piperidin-3-yl)benzamide] | 430 | 
